# Data from ChEMBL document CHEMBL1137755, “[35S]GTP gamma S binding studies of amphiphilic drugs-activated Gi proteins: a caveat” (Bioorg Med Chem Lett, 2009).
# Calls of active or inactive are those of the source. No cut-off for these calls is given here.
# Key:
# [1] = target: Guanine nucleotide-binding protein G(i) subunit alpha-1 (Homo sapiens) (UniProt P63096); assay: Activation of human Gi protein alpha1 subunit expressed in Escherichia coli assessed as protein bound [35S]GTPgammaS levels by scintillation spectroscopy; assay type: functional
# [2] = target: Guanine nucleotide-binding protein G(i) subunit alpha-1 (Homo sapiens) (UniProt P63096); assay: Activation of human Gi protein alpha1 subunit expressed in Escherichia coli assessed as protein bound [35S]GTPgammaS levels at 1 uM by scintillation spectroscopy; assay type: functional
# [3] = target: Guanine nucleotide-binding protein G(i) subunit alpha-1 (Homo sapiens) (UniProt P63096); assay: Activation of human Gi protein alpha1 subunit expressed in Escherichia coli assessed as protein bound [35S]GTPgammaS levels at 5 uM by scintillation spectroscopy; assay type: functional
# [4] = target: Guanine nucleotide-binding protein G(i) subunit alpha-1 (Homo sapiens) (UniProt P63096); assay: Activation of human Gi protein alpha1 subunit expressed in Escherichia coli assessed as protein bound [35S]GTPgammaS levels at 10 uM by scintillation spectroscopy relative to basal; assay type: functional
# [5] = target: Guanine nucleotide-binding protein G(i) subunit alpha-1 (Homo sapiens) (UniProt P63096); assay: Activation of human Gi protein alpha1 subunit expressed in Escherichia coli assessed as protein bound [35S]GTPgammaS levels at 10 uM by scintillation spectroscopy; assay type: functional
# [6] = target: Guanine nucleotide-binding protein G(i) subunit alpha-1 (Homo sapiens) (UniProt P63096); assay: Activation of human Gi protein alpha1 subunit expressed in Escherichia coli assessed as protein bound [35S]GTPgammaS levels at 50 uM by scintillation spectroscopy; assay type: functional
# [7] = target: Guanine nucleotide-binding protein G(o) subunit alpha (Homo sapiens) (UniProt P09471); assay: Activation of human Go protein alpha subunit expressed in Escherichia coli assessed as protein bound [35S]GTPgammaS levels at 5 uM by scintillation spectroscopy; assay type: functional
# [8] = Critical micelle concentration by drop-shape analysis; assay type: physicochemical
# [9] = target: Guanine nucleotide-binding protein G(o) subunit alpha (Homo sapiens) (UniProt P09471); assay: Activation of human Go protein alpha subunit expressed in Escherichia coli assessed as protein bound [35S]GTPgammaS levels at 100 uM by scintillation spectroscopy; assay type: functional
# [10] = target: Guanine nucleotide-binding protein G(o) subunit alpha (Homo sapiens) (UniProt P09471); assay: Activation of human Go protein alpha subunit expressed in Escherichia coli assessed as protein bound [35S]GTPgammaS levels at 50 uM by scintillation spectroscopy; assay type: functional
# [11] = target: Guanine nucleotide-binding protein G(i) subunit alpha-1 (Homo sapiens) (UniProt P63096); assay: Activation of human Gi protein alpha1 subunit expressed in Escherichia coli assessed as protein bound [35S]GTPgammaS levels at 100 uM by scintillation spectroscopy; assay type: functional
# [12] = target: Guanine nucleotide-binding protein G(o) subunit alpha (Homo sapiens) (UniProt P09471); assay: Activation of human Go protein alpha subunit expressed in Escherichia coli assessed as protein bound [35S]GTPgammaS levels at 10 uM by scintillation spectroscopy relative to basal; assay type: functional
# [13] = target: Guanine nucleotide-binding protein G(o) subunit alpha (Homo sapiens) (UniProt P09471); assay: Activation of human Go protein alpha subunit expressed in Escherichia coli assessed as protein bound [35S]GTPgammaS levels at 1 uM by scintillation spectroscopy; assay type: functional
# [14] = target: Guanine nucleotide-binding protein G(o) subunit alpha (Homo sapiens) (UniProt P09471); assay: Activation of human Go protein alpha subunit expressed in Escherichia coli assessed as protein bound [35S]GTPgammaS levels at 10 uM by scintillation spectroscopy; assay type: functional
# Guanine nucleotide-binding protein G(o) subunit alpha (Homo sapiens), sequence (P09471 2-354 limits assumed): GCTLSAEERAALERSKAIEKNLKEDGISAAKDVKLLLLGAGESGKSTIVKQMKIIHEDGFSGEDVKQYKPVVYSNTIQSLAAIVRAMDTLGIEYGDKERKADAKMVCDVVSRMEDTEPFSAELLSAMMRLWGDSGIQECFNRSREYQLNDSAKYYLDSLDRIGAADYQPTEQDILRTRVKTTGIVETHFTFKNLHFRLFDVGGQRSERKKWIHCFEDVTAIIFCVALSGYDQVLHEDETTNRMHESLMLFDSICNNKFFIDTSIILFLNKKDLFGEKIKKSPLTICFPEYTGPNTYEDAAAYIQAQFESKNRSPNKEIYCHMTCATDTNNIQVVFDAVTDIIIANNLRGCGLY
# Guanine nucleotide-binding protein G(i) subunit alpha-1 (Homo sapiens), sequence (P63096 whole entry): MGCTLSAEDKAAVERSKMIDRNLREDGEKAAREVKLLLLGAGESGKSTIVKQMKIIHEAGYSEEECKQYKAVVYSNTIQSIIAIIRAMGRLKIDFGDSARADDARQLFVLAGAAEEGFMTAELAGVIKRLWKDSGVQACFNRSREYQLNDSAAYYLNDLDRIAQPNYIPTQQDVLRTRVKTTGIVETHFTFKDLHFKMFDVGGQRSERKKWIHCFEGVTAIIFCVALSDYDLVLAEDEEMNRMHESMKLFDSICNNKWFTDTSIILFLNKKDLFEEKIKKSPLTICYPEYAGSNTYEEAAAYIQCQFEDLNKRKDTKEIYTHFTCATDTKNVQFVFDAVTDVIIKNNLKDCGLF
smiles,measurement,setting,value
CCOCCOCCOCCOCCOCCNC1CCNCC1,Activity,[1],inactive
c1ccc(CCCCNCC2CCNCC2)cc1,Activity,[1],inactive
CCOCCOCCOCCOCCNC1CCNCC1,Activity,[1],inactive
CCCCCCCNC1CCNCC1,Activity,[1],inactive
CCCCCCCCCCCCCCCN1CCC(C2CCN(CCN)CC2)CC1,Activity,[2],11.6 fmol
same,Activity,[3],78.7 fmol
same,Activity,[4],2550%
same,Activity,[5],234 fmol
same,Activity,[6],2300 fmol
CCCCCNN1CCNCC1,Activity,[1],inactive
CCCCCCCCCCCCCCCN1CCC(C2CCN(C(=O)[C@@H](N)CCCCN)CC2)CC1,Activity,[1],Active
c1ccc(CCCCN2CCC(C3CCNCC3)CC2)cc1,Activity,[1],inactive
CCOCCOCCOCCOCCN1CCC(C2CCNCC2)CC1,Activity,[1],inactive
CCCCCCCCCCCCCCC(=O)N1CCC(C2CCN(CCN)CC2)CC1,Activity,[2],30.3 fmol
same,Activity,[3],76.2 fmol
same,Activity,[4],877%
same,Activity,[5],87 fmol
same,Activity,[6],103 fmol
c1ccc(CCCCNN2CCNCC2)cc1,Activity,[1],inactive
CCOCCOCCOCCNCC1CCNCC1,Activity,[1],inactive
CCCCCNCC1CCNCC1,Activity,[1],inactive
CCCCCNC1CCNCC1,Activity,[1],inactive
CCCCCCCCCNC1CCNCC1,Activity,[1],inactive
c1ccc(CCCCNC2CCNCC2)cc1,Activity,[1],inactive
CCOCCOCCOCCN1CCC(C2CCNCC2)CC1,Activity,[1],inactive
CCCCCCCCCCCCCCCNC1CCNCC1,Activity,[2],15.4 fmol
same,Activity,[7],363 fmol
same,Activity,[3],49.5 fmol
same,CMC,[8],1.44 ×10⁻⁴ M
same,Activity,[4],693%
same,Activity,[9],1420 fmol
same,Activity,[10],1400 fmol
same,Activity,[5],70.6 fmol
same,Activity,[11],195 fmol
same,Activity,[12],668%
same,Activity,[6],196 fmol
same,Activity,[13],102 fmol
same,Activity,[14],636 fmol
CCOCCOCCOCCOCCOCCN1CCC(C2CCNCC2)CC1,Activity,[1],inactive
CCCCCCCCCCCCCCCNC1CCN(CCN)CC1,CMC,[8],1 ×10⁻⁴ M
same,Activity,[1],Active
CCCCCCCCCCCCCCCNCC1CCN(CCNC=O)CC1,Activity,[2],8.9 fmol
same,Activity,[3],69.1 fmol
same,Activity,[4],1170%
same,Activity,[5],113 fmol
same,Activity,[6],980 fmol
CCCCCCCCCCCCCCCN1CCC(C2CCN(CCNC(=O)[C@@H](N)CCCCN)CC2)CC1,Activity,[2],19.9 fmol
same,Activity,[3],33.3 fmol
same,CMC,[8],1.41 ×10⁻⁴ M
same,Activity,[4],2990%
same,Activity,[5],275 fmol
same,Activity,[6],781 fmol
CCOCCOCCOCCNC1CCNCC1,Activity,[1],inactive
CCOCCOCCOCCNN1CCNCC1,Activity,[1],inactive
CCCCCCCCCCCCCCCNC1CCN(C(=O)[C@@H](N)CCCCN)CC1,Activity,[1],Active
CCCCCCCCCCCCCCC(=O)N1CCC(C2CCN(C(=O)[C@@H](N)CCCCN)CC2)CC1,Activity,[1],Active
CCCCCCCCCN1CCC(C2CCNCC2)CC1,Activity,[1],inactive
CCCCCCCNN1CCNCC1,Activity,[1],inactive
CCCCCCCCCCCCCCCN1CCC(NC(=O)[C@@H](N)CCCCN)CC1,Activity,[2],23.7 fmol
same,Activity,[3],103 fmol
same,Activity,[4],1660%
same,Activity,[5],157 fmol
same,Activity,[6],185 fmol
CCCCCCCN1CCC(C2CCNCC2)CC1,Activity,[1],inactive
CCCCCCCCCCCCCCCNC1CCN(CCNC(=O)[C@@H](N)CCCCN)CC1,Activity,[1],Active
CCCCCCCCCNN1CCNCC1,Activity,[1],inactive
CCCCCN1CCC(C2CCNCC2)CC1,Activity,[1],inactive
